Source: patent US5017604A, “Novel fenamic acid methyl hydroxamate derivatives having cyclooxygenase and 5-lipoxygenase inhibition” (Warner-Lambert Company, priority 1990, dated 1991)
Values belong to the compound of their own block, whether it stands above or below them.

What was measured:
Type in all cases: cell-based
5-lipoxygenase [1] = target: T1, 5-lipoxygenase (Rattus norvegicus, UniProt P12527); experiment: ARBL whole cell 5-lipoxygenase assay (RBL-1 cells, LTB4 formation by RIA); settings: RBL-1 whole cells; for inhibition at 10 µM / inhibition at 16 µM: read-out: ARBL % inhibition at the given micromolar concentration (LTB4 formation); for IC50: A23187 5 μM, read-out: ARBL IC50 (50% inhibition of LTB4 formation)
T1 construct: host or cells: RBL-1 (rat basophilic leukemia) cells
T1 sequence (P12527 1-673): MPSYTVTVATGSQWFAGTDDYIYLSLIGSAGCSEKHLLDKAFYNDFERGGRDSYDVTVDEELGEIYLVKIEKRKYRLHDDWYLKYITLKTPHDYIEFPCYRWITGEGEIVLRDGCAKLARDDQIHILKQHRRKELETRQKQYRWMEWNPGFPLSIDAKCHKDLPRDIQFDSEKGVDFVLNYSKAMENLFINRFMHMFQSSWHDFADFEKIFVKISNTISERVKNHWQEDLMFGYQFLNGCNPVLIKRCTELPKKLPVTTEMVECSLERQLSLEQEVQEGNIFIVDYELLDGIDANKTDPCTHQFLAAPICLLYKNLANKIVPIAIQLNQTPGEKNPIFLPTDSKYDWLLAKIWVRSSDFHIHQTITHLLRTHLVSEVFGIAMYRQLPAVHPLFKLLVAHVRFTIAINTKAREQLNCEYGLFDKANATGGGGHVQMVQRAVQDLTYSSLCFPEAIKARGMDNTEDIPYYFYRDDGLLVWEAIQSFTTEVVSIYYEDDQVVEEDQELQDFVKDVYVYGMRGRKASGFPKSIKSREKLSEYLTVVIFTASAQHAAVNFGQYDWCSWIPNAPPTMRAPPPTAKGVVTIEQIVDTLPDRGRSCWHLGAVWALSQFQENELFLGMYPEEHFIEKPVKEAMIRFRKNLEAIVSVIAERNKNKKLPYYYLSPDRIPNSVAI
Description: (§1) ARBL/ARBC Whole Cell 5-Lipoxygenase and Cyclooxyqenase Assays
(§2) The rat basophilic leukemia cell line (RBL-1) was obtained from the American Type Culture Collection (Rockville, Md.).
(§3) Radioimmunoassay (RIA) kits for LTB4 and PGF2α determination were obtained from Amersham (Arlington Heights, Ill.) and Seragen (Boston, Mass.), respectively.
(§4) RBL-1 cells are grown in suspension culture in Eagle's minimum essential medium supplemented with 12% fetal bovine serum at 37° C. in an incubator supplied with air-5% carbon dioxide. Cells are harvested by centrifugation. They are washed with cold phosphate buffered saline pH 7.4 (PBS; NaCl, 7.1 g; Na2 HPO4, 1.15 g; KH2 PO4, 0.2 g; and KCl, 0.2 g/L). Cells are finally suspended in PBS containing 1.0 mM calcium at a density of 2×10^6 cells/mL. Cells are incubated with and without test agent (in DMSO) (1% DMSO is without effect on arachidonic acid metabolism) for 10 minutes at room temperature. Calcium inonophore A23187 (5 μM) is added and cells are incubated for 7 minutes at 37° C. The reaction is stopped by chilling the tubes on ice for 10 minutes. Cells are separated by centrifugation and the supernatant is stored at -20° . Aliquots (100 μL) are analyzed for LTB4 and PGF2α using radioimmunoassay kits as provided by the supplier.
(§5) Table 1 contains biochemical data obtained from this whole cell assay as IC50 s which are calculated as the concentration of test compound causing 50% inhibition of LTB4 or PGF2α formation or in percent inhibition at the given micromolar concentration. N at 10 or 16 is not active at 10 μmolar or 16 μmolar.

cyclooxygenase [2] = target: T2, cyclooxygenase (Rattus norvegicus, UniProt Q63921); experiment: ARBC whole cell cyclooxygenase assay (RBL-1 cells, PGF2α formation by RIA); design: key: N @ 10 μmolar is not active at 10 μmolar; settings: RBL-1 whole cells; @ 10 μM
T2 construct: host or cells: RBL-1 (rat basophilic leukemia) cells
T2 sequence (Q63921 27-602): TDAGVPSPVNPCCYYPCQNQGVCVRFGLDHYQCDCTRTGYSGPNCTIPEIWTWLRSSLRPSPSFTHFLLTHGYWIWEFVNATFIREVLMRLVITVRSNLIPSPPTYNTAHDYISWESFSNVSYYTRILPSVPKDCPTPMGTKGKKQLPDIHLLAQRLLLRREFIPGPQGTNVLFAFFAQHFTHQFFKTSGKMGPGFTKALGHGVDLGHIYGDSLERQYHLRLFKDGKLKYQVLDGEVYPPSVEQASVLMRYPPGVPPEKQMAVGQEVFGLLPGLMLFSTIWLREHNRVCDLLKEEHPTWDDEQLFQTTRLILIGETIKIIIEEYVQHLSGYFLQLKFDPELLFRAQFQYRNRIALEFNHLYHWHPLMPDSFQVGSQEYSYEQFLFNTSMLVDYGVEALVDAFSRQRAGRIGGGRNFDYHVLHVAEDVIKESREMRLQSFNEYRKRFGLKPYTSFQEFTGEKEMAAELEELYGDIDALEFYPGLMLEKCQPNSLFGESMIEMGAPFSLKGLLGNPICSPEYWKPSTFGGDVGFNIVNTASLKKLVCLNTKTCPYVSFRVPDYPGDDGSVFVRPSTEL
Description: as §1, §2, §3
as §4, with “supplier. […]” for “supplier.”

cyclooxygenase [3] = target: T2, cyclooxygenase; experiment: as above; settings: RBL-1 whole cells; for IC50: A23187 5 μM, read-out: ARBC IC50 (50% inhibition of PGF2α formation)
Description: as §1, §2, §3, §4, §5

cyclooxygenase [4] = target: T2, cyclooxygenase; experiment: as above; design: key: N @ 16 μmolar is not active at 16 μmolar; settings: RBL-1 whole cells; @ 16 μM
Description: as §1, §2, §3, §4, §5

5-lipoxygenase [5] = target: T1, 5-lipoxygenase; experiment: ARBL whole cell 5-lipoxygenase assay (RBL-1 cells, LTB4 formation by RIA); design: key: N @ 10 μmolar is not active at 10 μmolar; settings: RBL-1 whole cells; @ 10 μM
Description: as §1, §2, §3, §4, §5

5-lipoxygenase [6] = target: T1, 5-lipoxygenase; experiment: as above; design: key: N @ 16 μmolar is not active at 16 μmolar; settings: RBL-1 whole cells; @ 16 μM
Description: as §1, §2, §3, §4, §5

[7] = read-out: ARBC % inhibition at the given micromolar concentration (PGF2α formation)

Compound: COC(=O)c1ccccc1Nc1cccc(C(C)N(O)C(C)=O)c1Cl (stereo not drawn) [Example 33, 2-[[3-[1-(acetylhydroxyamino)ethyl]-2-chlorophenyl]amino]benzoic acid methyl ester]
inhibition at 10 µM (5-lipoxygenase [1]): 100%
ARBC activity (N = not active) (cyclooxygenase [2]): N

Compound: COC(=O)c1ccccc1Nc1cccc(CN(O)C(C)=O)c1C [Example 34]
IC50 (5-lipoxygenase [1]): < 0.0625 µM
IC50 (cyclooxygenase [3]): 10 µM

Compound: COC(=O)c1ccccc1Nc1cccc(C(C)N(O)C(C)=O)c1C (stereo not drawn) [Example 35]
inhibition at 10 µM (5-lipoxygenase [1]): 100%
ARBC activity (N = not active) (cyclooxygenase [2]): N

Compound: COC(=O)c1ccccc1Nc1c(C)ccc(C(C)N(O)C(C)=O)c1C (stereo not drawn) [Example 36]
ARBC activity (N = not active) (cyclooxygenase [4]): N
inhibition at 16 µM (5-lipoxygenase [1]): 100%

Compound: COC(=O)c1ccccc1Nc1cccc(CN(O)C(C)=O)c1Cl [Example 37]
IC50 (5-lipoxygenase [1]): 0.58 µM
IC50 (cyclooxygenase [3]): 4.3 µM

Compound: COC(=O)c1ccccc1Nc1c(Cl)ccc(CN(O)C(C)=O)c1Cl [Example 38]
IC50 (5-lipoxygenase [1]): 0.36 µM
IC50 (cyclooxygenase [3]): 6 µM

Compound: COC(=O)c1ccccc1Nc1c(Cl)ccc(C(C)N(O)C(C)=O)c1Cl (stereo not drawn) [Example 39]
inhibition at 10 µM (5-lipoxygenase [1]): 100%
inhibition at 10 µM (cyclooxygenase [3]; [7]): 52%

Compound: CCOC(=O)N(O)Cc1cccc(Nc2ccccc2C(=O)OC)c1Cl [Example 40, 2-[[2-chloro-3-[[(ethoxycarbonyl)hydroxyamino]methyl]phenyl]amino]benzoic acid, methyl ester]
IC50 (5-lipoxygenase [1]): 0.21 µM
IC50 (cyclooxygenase [3]): 0.67 µM

Compound: CCOC(=O)N(O)Cc1cccc(Nc2ccccc2C(=O)OC)c1C [Example 41, 2-[[3-[[(Ethoxycarbonyl)hydroxyamino]methyl]-2-methylphenyl]amino]benzoic acid methyl ester]
IC50 (5-lipoxygenase [1]): 0.39 µM
IC50 (cyclooxygenase [3]): 8.7 µM

Compound: CCOC(=O)N(O)Cc1ccc(Cl)c(Nc2ccccc2C(=O)OC)c1Cl [Example 42]
IC50 (5-lipoxygenase [1]): 0.33 µM
IC50 (cyclooxygenase [3]): 3.7 µM

Compound: CCOC(=O)N(O)C(C)c1ccc(C)c(Nc2ccccc2C(=O)OC)c1C (stereo not drawn) [Example 43]
ARBC activity (N = not active) (cyclooxygenase [4]): N
inhibition at 16 µM (5-lipoxygenase [1]): 100%

Compound: CNC(=O)N(O)Cc1cccc(Nc2ccccc2C(=O)OC)c1C [Example 44, 2-[[3-[[Hydroxy[(methylamino)carbonyl]amino]methyl]-2-methylphenyl]amino]benzoic acid methyl ester]
inhibition at 16 µM (5-lipoxygenase [1]): > 95%
inhibition at 16 µM (cyclooxygenase [3]; [7]): 43%

Compound: CNC(=O)N(O)Cc1cccc(Nc2ccccc2C(=O)OC)c1Cl [Example 46, 2-[[2-Chloro-3-[[hydroxy[(methylamino)carbonyl]amino]methyl]phenyl]amino]benzoic acid methyl ester]
IC50 (5-lipoxygenase [1]): 0.36 µM
IC50 (cyclooxygenase [3]): 4.7 µM

Compound: CC(=O)N(O)C(C)c1cccc(Nc2ccccc2C(=O)O)c1Cl (stereo not drawn) [Example 47]
inhibition at 10 µM (cyclooxygenase [3]; [7]): 79%
ARBL activity (N = not active) (5-lipoxygenase [5]): N

Compound: CC(=O)N(O)Cc1cccc(Nc2ccccc2C(=O)O)c1C [Example 48]
IC50 (cyclooxygenase [3]): 1.9 µM
ARBL activity (N = not active) (5-lipoxygenase [5]): N

Compound: CCOC(=O)N(O)Cc1cccc(Nc2ccccc2C(=O)O)c1C [Example 49]
inhibition at 0.25 µM (cyclooxygenase [3]; @ 0.25 μM, read-out: ARBC % inhibition at the given micromolar concentration (PGF2α formation)): 67%
ARBL activity (N = not active) (5-lipoxygenase [6]): N

The remaining lines, values ahead:

inhibition at 16 µM (cyclooxygenase [3]; [7]): 56%
ARBL activity (N = not active) (5-lipoxygenase [6]): N
Compound: CNC(=O)N(O)Cc1cccc(Nc2ccccc2C(=O)O)c1C [Example 50]

inhibition at 10 µM (cyclooxygenase [3]; [7]): 70%
ARBL activity (N = not active) (5-lipoxygenase [6]): N
Compound: CC(=O)N(O)C(C)c1cccc(Nc2ccccc2C(=O)O)c1C (stereo not drawn) [Example 51]

ARBC activity (N = not active) (cyclooxygenase [4]): N
ARBL activity (N = not active) (5-lipoxygenase [6]): N
Compound: CC(=O)N(O)C(C)c1ccc(C)c(Nc2ccccc2C(=O)O)c1C (stereo not drawn) [Example 52]

inhibition at 16 µM (cyclooxygenase [3]; [7]): 53%
ARBL activity (N = not active) (5-lipoxygenase [6]): N
Compound: CCOC(=O)N(O)C(C)c1ccc(C)c(Nc2ccccc2C(=O)O)c1C (stereo not drawn) [Example 53]

inhibition at 10 µM (cyclooxygenase [3]; [7]): 87%
ARBL activity (N = not active) (5-lipoxygenase [5]): N
Compound: CC(=O)N(O)Cc1cccc(Nc2ccccc2C(=O)O)c1Cl [Example 54]

inhibition at 10 µM (cyclooxygenase [3]; [7]): 83%
ARBL activity (N = not active) (5-lipoxygenase [5]): N
Compound: CC(=O)N(O)Cc1ccc(Cl)c(Nc2ccccc2C(=O)O)c1Cl [Example 55]

inhibition at 16 µM (5-lipoxygenase [1]): 47%
inhibition at 16 µM (cyclooxygenase [3]; [7]): 89%
Compound: CCOC(=O)N(O)Cc1ccc(Cl)c(Nc2ccccc2C(=O)O)c1Cl [Example 56]

inhibition at 10 µM (cyclooxygenase [3]; [7]): 53%
ARBL activity (N = not active) (5-lipoxygenase [5]): N
Compound: CC(=O)N(O)C(C)c1ccc(Cl)c(Nc2ccccc2C(=O)O)c1Cl (stereo not drawn) [Example 57]
